Measured values taken from US5705499A, “8-arylalkyl- and 8-arylheteroalkyl-5,11-dihydro-6H-dipyrido[3,2-B:2',3'-e][1]diazepines and their use in the treatment of HIV-1 infection” (Boehringer Ingelheim Pharmaceuticals, Inc., priority 1996, dated 1998).

Assays:
RT (Y181C) = molecular target: T1, RT (Y181C) (Human immunodeficiency virus type 1 group M subtype B, UniProt P04585, Y768C); format: biochemical; conditions: Y181C mutant HIV-1 RT
T1 construct: Heterodimeric RT was eluted using a descending gradient; made in house; host or cells: E. coli
From the text: (§1) REVERSE TRANSCRIPT (RT) ASSAYS
(§2) Among the enzymes for which Human Immunodeficiency Virus (HIV-1) encodes is a reverse transcriptase (1), so-named because it transcribes a DNA copy from an RNA template. This activity can be quantitatively measured in a cell-free enzyme assay, which has been previously described (2), and is based upon the observation that reverse transcriptase is able to use a synthetic template [poly r(C) primed with oligo d(G)] to transcribe a radio-labelled, acid-precipitable DNA strand utilizing ^3 H-dGTP as a substrate. The assay described below utilizes the wild type (WT) enzyme, which is the predominant form of the enzyme observed in patients infected with HIV-1.
Purification of recombinant reverse transcriptase was performed using a combination of methods previously described (5). This procedure is summarized briefly as follows: Bacteria were pelleted E. Coli containing RT-1 wt or RT-1 (Y181 C) were suspended in 50 mM MES, pH 6.0 containing 10% glycerol, lysed in a french press, centrifuged, and the supernates discarded. […]
The 2.4× concentrated stock reaction mixture is aliquoted and stored at -20° C. […] The filters are then dried, placed into plastic bags with Betaplate scintillation cocktail (Pharmacia/LKB) and counted in the Betaplate counter (Pharmacia/LKB). […]

AIDS = conditions: cited from earlier work
RT (WT) [1] = molecular target: T2, RT (WT) (Human immunodeficiency virus type 1 group M subtype B, UniProt P04585); conditions: same in vitro tests used for the compounds of the invention; cited from earlier work
RT (WT) [2] = molecular target: T2, RT (WT); experiment: Reverse Transcriptase (RT) Assay, wild type; format: biochemical, HIV-1; parameters: Heterodimeric RT was eluted using a descending gradient; made in house; host or cells: E. coli (clone pKRT2, obtained from Yale University); conditions: read-out: RT (WT) Assay % inh. (1 μM)
From the text: as §1, §2
The HIV-1 RT expression clone, pKRT2, was obtained from Yale University (3). An overnight culture, grown in 2×YT medium (37° C., 225 rpm) (4), supplemented with 100 μg/mL ampicillin for positive selection was used to inoculate the 2×YT medium. The culture is incubated (37° C., 225 rpm) until it reaches an OD600 of 0.6-0.9. At that time the repressor inhibitor IPTG (isopropyl β-D-thiogalactopyranoside) is added to 0.5 mM, and the mixture is incubated for 2 additional hours.
Purification of recombinant reverse transcriptase was performed using a combination of methods previously described (5). This procedure is summarized briefly as follows: Bacteria were pelleted E. Coli containing RT-1 wt or RT-1 (Y181 C) were suspended in 50 mM MES, pH 6.0 containing 10% glycerol, lysed in a french press, centrifuged, and the supernates discarded. Lysate pellets were extracted with buffer A (50 mM MES, pH 6.0, 100 mM KCl, 50 mM KPi, 10% glycerol, 0.02% hexyl β-glucoside), and re-centrifuged; nucleic acid in supernates was precipitated with 0.1% polyethylenimine. […] Bound RT was eluted with a gradient of 0 to 1.0M (NH4)2 SO4 in buffer B. Heparin-Sepharose fractions containing RT were concentrated (Amicon YM-30 membrane), combined with equal volumes of 2.0M (NH4)2 SO4 in buffer B and injected onto a 21.5×150 mm TSK Phenyl-5PW HIC HPLC column (Phenomenex). Heterodimeric RT was eluted using a descending gradient of 1.0M to 0M (NH4)2 SO4 in buffer B, concentrated, and stored at 4° C.
The 2.4× concentrated stock reaction mixture is aliquoted and stored at -20° C. […] This enzyme assay has been adapted to a 96 well microtiter plate system, and has been previously described (6). Tris buffer (50 mM, pH 7.8), vehicle (solvent diluted to match the compound dilution), or compounds in vehicle are dispensed into 96-well microtiter plates (10 μL/well; 3 wells/compound). The HIV-1 RT enzyme is thawed, diluted in 50 mM Tris pH 7.8 containing 0.05% Chaps to give 1.5 nM enzyme and 25 μL are dispensed per well. Ten μL of 0.5M EDTA are added to the first three wells of the microtiter plate. EDTA chelates the Mg^++ present and prevents reverse transcription. This group serves as background polymerization which is subtracted from all other groups. Twenty-five μl of the 2.4× reaction mixture are added to all wells and the assay is allowed to incubate at room temperature for 30 minutes. The assay is terminated by precipitating the DNA in each well with 60μL of sodium pyrophosphate (2% w/v) in 10% trichloracetic acid (TCA) (10% w/v). The microtiter plate is incubated for 15 minutes at 4° C. and the precipitate is harvested onto #30 glass fiber paper (Schleicher & Schuell) using a Tomtech 96-well harvester. The filters are then dried, placed into plastic bags with Betaplate scintillation cocktail (Pharmacia/LKB) and counted in the Betaplate counter (Pharmacia/LKB).
The calculation for percent inhibition is as follows: [formula]

C8166-45 cell line = experiment: MTT Assay (cytotoxicity); format: cell-based, human; conditions: C8166-45 cells, five days
[3] = test system: HTLV-IIIB strain of HIV-1 (in C8166-45 cells); experiment: Syncytia (human T-cell culture) Assay; format: cell-based; conditions: Human immunodeficiency virus 1, T-cell; C8166-45 cells, HTLV-IIIB strain, 72 hours; read-out: Syncytia Assay IC50
Procedure: Formation of syncytia is a feature of in vitro cultures of CD4+ T-cells infected with HIV-1. In this assay (1), T-cells are treated with a putative replication inhibiting compound and then infected with HIV-1. After incubation, the culture is checked for the formation of syncytia. The absence or reduction in the number of syncytia is used as a measure of the test compound's ability to inhibit HIV replication.
The target cells, designated C8166-45, are a fusion of umbilical blood lymphocytes and T-cells from leukemia-lymphoma patients and are established at an initial density of 5×10^4 per 90 μl in RPMI 1640 (+10% fetal bovine serum) culture medium in 96 well flat bottom plates. A selected amount of test compound, dissolved in DMSO, is included. 50 TCID50 's (the dose that results in induced effect in 50% of test cultures) of the HTLV-IIIB strain of HIV-1 (3) are inoculated into each culture. Control cultures receive compound or virus only.
The cultures are incubated for 72 hours (4), at 37° C. with 5% carbon dioxide, and then visually examined for the frequency and distribution of virus-induced giant cell syncytia. The percent inhibition by the test compound is determined by comparison with control values.

Row | Molecule | inhibition at 1 µM (RT (WT) [2]) [%] | MTT Assay CC30 (C8166-45 cell line) [nM] | also measured
1 | 2-Chloro-5,11-dihydro-11-ethyl-8-[2-(3-methylsulfonamidophenyl)ethyl]-6H-dipyrido[3,2-b:2',3'-e][1,4]diazepin-6-one [Example 25] | – | – | RT (Y181C) Assay % inh. (1 μM) (RT (Y181C)): 70%
2 | 5,11-Dihydro-11-ethyl-5-methyl-8-phenylethynyl-6H-dipyrido[3,2-b:2',3'-e][1,4]diazepin-6-one [Example 48] | – | – | RT (Y181C) Assay % inh. (1 μM) (RT (Y181C)): 17%
3 | Cc1ccnc2c1NC(=O)c1cccnc1N2C1CC1 [11-cyclopropyl-5,11-dihydro-4-methyl-6H-dipyrido[3,2-b;2',3', -e][1,4]diazepine-6-one] | – | – | active in the treatment of AIDS in human tests (AIDS): active in the treatment of AIDS in human tests; active in the same in vitro tests (RT (WT) [1]): active in the same in vitro tests
4 | CCN1c2ncc(/C=C/c3ccncc3)cc2C(=O)N(C)c2cccnc21 [Example 1, 5,11-Dihydro-11-ethyl-5-methyl-8-[trans-2-(pyrid-4-yl)ethen-1-yl]-6H H-dipyridol[3,2-b:2',3'-e][1,4]diazepin-6-one] | 32 | – | –
5 | CCN1c2ncc(CCc3ccncc3)cc2C(=O)N(C)c2cccnc21 [Example 2, 5,11-Dihydro-11-ethyl-5-methyl-8-[2-(pyrid-4-yl)ethyl]-6H-dipyrido[3,2-b:2',3'-e][1,4]diazepin-6-one] | 95 | > 60000 | IC50 [3]: 20 nM
6 | CCN1c2ncc(CCc3ccncc3)cc2C(=O)N(C)c2ccc(Cl)nc21 [Example 3, 2-Chloro-5,11-dihydro-11ethyl-5methyl-8-[2-(pyrid-4-yl)ethyl]-6H-dipyrido-[3,2-b:2',3'-e][1,4]diazepin-6-one] | 95 | 70000 | IC50 [3]: 10 nM
7 | CCN1c2ncc(CCc3ccncc3)cc2C(=O)N(C)c2ccc(C#N)nc21 [Example 4, 2-Cyano-5,11-dihydro-11-ethyl-8-[2-(4-pyridyl)ethyl]-5-methyl-6H-dipyrido-[3,2-b:2',3'-e][1,4]diazepin-6-one] | 82 | – | –
8 | CCN1c2ncc(CCc3ccncc3)cc2C(=O)N(C)c2ccc(N)nc21 [Example 5, 2-Amino-5,11-dihydro-11-ethyl-8-[2-(4-pyridil)ethyl]-5-methyl-6H -dipyrido[3,2-b:2',3'-e][1,4]diazepin-6-one] | 68 | – | –
9 | CCN1c2ncc(CCc3ccncc3)cc2C(=O)N(C)c2ccc(O)nc21 [Example 6, 5,11-Dihydro-11-ethyl-2-hydroxy-8-[2-(4-pyridil)ethyl]5-methyl-6H-dipyrido[3,2-b:2',3'-e][1,4]diazepin-6-one] | 21 | > 256000 | –
